Results: paper PMC11676982, “Heterotropic Activation of Cytochrome P450 3A4 by Perillyl Alcohol” (Pharmaceutics, 2024)

Legend:
CYP2A6 [1] = biological target: T1, CYP2A6 (Homo sapiens, UniProt P11509); assay: Direct CYP inhibition assay in pooled HLMs, CYP2A6 (coumarin); assay type: in vitro ADME; conditions: pooled HLMs 0.2 mg/mL; substrate coumarin 5 μM; 10 min; 95% CI in parentheses; read-out: IC50 against CYP2A6
T1 sequence (P11509 1-494): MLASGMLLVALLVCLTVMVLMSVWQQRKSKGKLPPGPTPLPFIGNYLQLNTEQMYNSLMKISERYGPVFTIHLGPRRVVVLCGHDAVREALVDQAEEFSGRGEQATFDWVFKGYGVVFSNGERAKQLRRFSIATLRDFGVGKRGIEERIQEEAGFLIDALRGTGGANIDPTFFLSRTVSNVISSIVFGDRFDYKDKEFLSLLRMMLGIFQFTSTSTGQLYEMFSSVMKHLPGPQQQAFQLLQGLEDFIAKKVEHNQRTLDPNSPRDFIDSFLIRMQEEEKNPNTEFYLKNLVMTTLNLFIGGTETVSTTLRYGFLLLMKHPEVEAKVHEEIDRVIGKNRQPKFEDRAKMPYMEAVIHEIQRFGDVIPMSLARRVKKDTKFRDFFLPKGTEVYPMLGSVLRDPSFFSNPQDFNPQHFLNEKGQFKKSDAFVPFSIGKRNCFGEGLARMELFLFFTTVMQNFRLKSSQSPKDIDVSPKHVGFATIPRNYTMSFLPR

CYP2B6 [2] = biological target: T2, CYP2B6 (Homo sapiens, UniProt P20813); assay: Direct CYP inhibition assay in pooled HLMs, CYP2B6 (bupropion); conditions: read-out: IC50 against CYP2B6; pooled HLMs 0.2 mg/mL; substrate bupropion 50 μM; 10 min; 95% CI in parentheses
T2 sequence (P20813 1-491): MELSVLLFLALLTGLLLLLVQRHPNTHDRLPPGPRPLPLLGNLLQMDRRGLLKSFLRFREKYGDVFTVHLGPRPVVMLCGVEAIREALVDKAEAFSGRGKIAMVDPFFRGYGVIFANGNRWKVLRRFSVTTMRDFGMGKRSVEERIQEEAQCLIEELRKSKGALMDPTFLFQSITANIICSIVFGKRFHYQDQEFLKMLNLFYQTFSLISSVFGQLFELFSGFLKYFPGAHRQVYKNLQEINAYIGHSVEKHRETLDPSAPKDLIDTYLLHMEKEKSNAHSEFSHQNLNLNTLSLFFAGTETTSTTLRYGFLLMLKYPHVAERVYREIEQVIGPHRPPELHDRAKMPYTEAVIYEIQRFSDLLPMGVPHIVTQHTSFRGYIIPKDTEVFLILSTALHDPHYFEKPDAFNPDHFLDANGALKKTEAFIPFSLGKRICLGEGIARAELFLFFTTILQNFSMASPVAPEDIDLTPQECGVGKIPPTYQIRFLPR

CYP2C19 = CYP2C19 (Homo sapiens, UniProt P33261); assay: Direct CYP inhibition assay in pooled HLMs, CYP2C19 (S-mephenytoin); conditions: read-out: IC50 against CYP2C19; pooled HLMs 0.2 mg/mL; substrate (S)-mephenytoin 100 μM; 10 min; 95% CI in parentheses
Sequence of CYP2C19 (P33261 whole entry): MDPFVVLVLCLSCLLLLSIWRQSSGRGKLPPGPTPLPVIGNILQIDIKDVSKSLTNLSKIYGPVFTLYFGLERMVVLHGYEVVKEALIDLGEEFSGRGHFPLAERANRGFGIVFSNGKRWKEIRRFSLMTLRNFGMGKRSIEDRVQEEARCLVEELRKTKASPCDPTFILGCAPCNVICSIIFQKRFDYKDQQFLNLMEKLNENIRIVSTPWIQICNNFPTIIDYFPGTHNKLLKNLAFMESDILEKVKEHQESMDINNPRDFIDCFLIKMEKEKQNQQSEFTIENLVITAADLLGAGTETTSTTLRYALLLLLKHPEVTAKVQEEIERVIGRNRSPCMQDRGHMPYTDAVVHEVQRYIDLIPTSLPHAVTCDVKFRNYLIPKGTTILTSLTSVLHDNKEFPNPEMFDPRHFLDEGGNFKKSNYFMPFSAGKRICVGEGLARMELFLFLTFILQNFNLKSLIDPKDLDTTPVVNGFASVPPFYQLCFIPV

CYP2B6 [3] = biological target: T2, CYP2B6; assay: Determination of CYP inhibition mode and Ki in pooled HLMs, CYP2B6-mediated bupropion hydroxylation
Protocol: (§3) A 5 min pre-incubation was performed prior to initiating reactions with the addition of 1 mM NADPH. After incubation at 37 °C for 10 min, 200 μL of ice-cold acetonitrile containing 100 nM carbamazepine as an internal standard was added to terminate the reaction. The samples were agitated and centrifuged at 4 °C for 20 min at 3000× g. The supernatants were transferred to a 96-well plate for LC-MS/MS analysis. The experiment was performed using three separate samples.
(§4) Data acquired from the evaluation of enzyme inhibition using various concentrations of substrates and test compounds were fit to different models (competitive, noncompetitive, uncompetitive, or mixed), and inhibition constant (Ki) and goodness of fit values were obtained using GraphPad Prism. The appropriate type of inhibition was selected based on statistical goodness of fit tests including Akaike’s information criterion (AICc) with correction for small sample size and the standard deviation of the residuals (Sy.x).

CYP2A6 [4] = biological target: T1, CYP2A6; assay: Metabolism-dependent inhibition assay (IC50 shift) in pooled HLMs, CYP2A6; conditions: substrate coumarin; for IC50: pooled HLMs, 95% CI in parentheses
Protocol: (§1) The experiments for determining metabolism-dependent inhibition were conducted utilizing a non-dilution method. […] The pre-incubation was initiated by the addition of 1 mM NADPH and incubation for 30 min. Subsequently, final incubation was performed with the addition of a substrate (5 μM coumarin or 50 μM bupropion) in the presence of NADPH for 10 min; the total volume of the mixture was 200 μL. […] Mixtures were subjected to centrifugation at 3000× g for 20 min at 4 °C, and the supernatants were analyzed using LC-MS/MS. The experiment was performed using three separate samples.
(§2) The CYP-mediated activities in the presence of test substances were expressed as percentages of the corresponding control values.

CYP2A6 [5] = biological target: T1, CYP2A6; assay: Determination of CYP inhibition mode and Ki in pooled HLMs, CYP2A6-mediated coumarin 7-hydroxylation
Protocol: as §3, §4

CYP2B6 [6] = biological target: T2, CYP2B6; assay: Metabolism-dependent inhibition assay (IC50 shift) in pooled HLMs, CYP2B6; conditions: substrate bupropion
Protocol: as §1, §2

[7] = system: CYP isoforms (CYP1A2, CYP2A6, CYP2B6, CYP2C8, CYP2C9, CYP2C19, CYP2D6, CYP2E1, and CYP3A4); assay: Direct CYP inhibition assay in pooled HLMs, nine CYP isoforms (summary statement); conditions: up to 50 μM
[8] = best fit by AICc and Sy.x, Dixon plots
[9] = IC50 without NADPH/IC50 with NADPH

For `N[C@@H]1C[C@H]1c1ccccc1` (racemic) [Tranylcypromine, reference compound], the IC50 (CYP2A6 [1]) was 0.5 µM.
Work on `C=C(C)C1CC=C(C=O)CC1` (single isomer, unassigned; (+)) [(+)-PAH, (+)-perillaldehyde] yielded an IC50 (CYP2A6 [1]) of 10.6 µM, an IC50 (CYP2B6 [2]) of 29 µM and an IC50 (CYP2C19) of 50.5 µM.
For `C=C(C)C1CC=C(C=O)CC1` (single isomer, unassigned; (-)) [(−)-PAH, (−)-Perillaldehyde], the “Type of inhibition, CYP2B6” value (CYP2B6 [3]; [8]) was “mixed inhibition model”, the “Ki, CYP2B6, uncompetitive model (not selected)” value (CYP2B6 [3]; pooled HLMs, bupropion, 95% CI in parentheses) was 2.77 (2.31–3.28) μM and the Ki (CYP2B6 [3]; read-out: Ki, CYP2B6, mixed inhibition model (selected best fit), pooled HLMs, bupropion 12.5–100 μM, 95% CI in parentheses) was 3.05 µM. The “IC50 fold-shift, CYP2A6” value (CYP2A6 [4]; [9]) was 1.03, the IC50 (CYP2A6 [4]; read-out: IC50, pre-incubation with NADPH, CYP2A6, 30 min pre-incubation with NADPH) was 7.99 µM and the IC50 (CYP2A6 [4]; read-out: IC50, pre-incubation without NADPH, CYP2A6, 30 min pre-incubation without NADPH) was 8.25 µM. The IC50 (CYP2A6 [1]) was 3.64 µM, the IC50 (CYP2B6 [2]) was 6.15 µM and the “Type of inhibition, CYP2A6” value (CYP2A6 [5]; [8]) was “mixed inhibition model”. For the same compound, the “Ki, CYP2A6, uncompetitive model (not selected)” value (CYP2A6 [5]; pooled HLMs, coumarin, 95% CI in parentheses) was 2.40 (2.04–2.82) μM, the Ki (CYP2A6 [5]; read-out: Ki, CYP2A6, mixed inhibition model (selected best fit), pooled HLMs, coumarin 1.25–10 μM, 95% CI in parentheses) was 1720 nM and the “IC50 fold-shift, CYP2B6” value (CYP2B6 [6]; [9]) was 0.78. The IC50 (CYP2B6 [6]; read-out: IC50, pre-incubation without NADPH, CYP2B6, pooled HLMs, 30 min pre-incubation without NADPH, 95% CI in parentheses) was 11.9 µM and the IC50 (CYP2C19) was 18 µM.
`C=C(C)[C@H]1CC=C(C(=O)O)CC1` [(−)-PA, (−)-perillic acid] was tested, and the “Inhibition of activities of CYP isoforms (words)” value [7] was “did not significantly inhibit” and the “Inhibition of activities of CYP isoforms (words)” value ([7]; listed as PA) was “not significantly inhibited”.
Work on `COc1ccc2[nH]c([S+]([O-])Cc3ncc(C)c(OC)c3C)nc2c1` (stereo not drawn) [Omeprazole, reference compound] yielded an IC50 (CYP2C19) of 5.4 µM.
